Our source for the IC50 values is ChEMBL document CHEMBL1158319, “New protopine and benzyltetrahydroprotoberberine alkaloids from Aristolochia constricta and their activity on isolated guinea-pig ileum” (J Nat Prod, 1997).

Common to all, as to type: functional, tissue-based
What all share (settings): Cavia porcellus, 0.5 h

Experiment [1] relates to Ileum. The experiment is described as follows: Antispasmodic activity in guinea pig ileum assessed as inhibition of histamine-induced tissue contraction after 30 mins.
In experiment [2] the test system is Ileum. The experiment is described as follows: Antispasmodic activity in guinea pig ileum assessed as inhibition of acetylcholine-induced tissue contraction after 30 mins.
The test system of experiment [3] is Ileum. In words: Antispasmodic activity in guinea pig ileum assessed as inhibition of electrically-induced tissue contraction after 30 mins.

The IC50 is the midpoint of a concentration-inhibition curve.

Regarding `COc1ccc2c(c1)/C=C\N=C\c1cc(O)ccc1CC2=O`, the IC50 with Ileum [1] was determined as 59 µM; in the experiment on Ileum [2], 85 µM; in the experiment on Ileum [3], 86 µM.

For the compound `COc1ccc2c(c1)/C=N/CCc1cc(OC)ccc1C(=O)C2`, the half-maximal inhibitory concentration (IC50) in the experiment with Ileum [1] turned out to be 22 µM; in the experiment on Ileum [2], 20 µM; in the experiment with Ileum [3], 19 µM.

Regarding `O=C1Cc2ccc(O)cc2/C=N/CCc2cc(O)ccc21`, the half-inhibitory concentration (IC50) with Ileum [1] turned out to be 26 µM; in the experiment with Ileum [2], 26 µM; in the experiment with Ileum [3], 21 µM.

Turning to `COc1ccc2c(c1)/C=C\N=C\c1cc(OC)ccc1CC2=O`, the 50% inhibitory concentration (IC50) was found to be 68 µM in the experiment on Ileum [1], 58 µM in the experiment on Ileum [2] and 66 µM in the experiment on Ileum [3].

Turning to `O=C1Cc2ccc(O)cc2/C=N/C=C\c2cc(O)ccc21` [CONSTRICTOSINE], the IC50 in the experiment with Ileum [1] was found to be 51 µM; in the experiment on Ileum [2], 75 µM; in the experiment on Ileum [3] it was 66 µM.
